Measurements from patent publication US20220168427A1 (Ranok Therapeutics (Hangzhou) Co. Ltd., priority 2019, published 2022).

Legend:
HSP90α = HSP90α (Homo sapiens, UniProt P07900); assay: HSP90α Binding Fluorescent Polarization (FP) Assay; details: competition with FITC-geldanamycin; read-out: HSP90 Binding Potency
In short: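 Duplicate wells held BSA buffer, FITC-geldanamycin tracer, compound (3-fold dilution plate spanning 40 μM–2.0 nM) and recombinant protein diluted to 28 μg/ml before addition. Polarization read at 30, 60 and 120 min, 25 °C. Background-corrected mP values gave IC50 through a four-parameter inhibitor-response fit.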

BRD4 (BD1+BD2) = target: T1, BRD4 (BD1+BD2) (Homo sapiens, UniProt O60885); details: read-out: BRD4 Binding Potency
T1 construct: 1.8 μg/ml recombinant BRD4 (BD1+BD2 domains) protein

MV4-11 cells = assay: MV4-11 Cell Cytotoxicity Assay; assay type: cell-based, human; details: human, MV4-11 cells, CCK-8
Excerpt: % Inhibition=100−(D−B)/(S−B)*100%.
S: The absorbance of the maximum (cells with DMSO)
B: The absorbance of the minimum (medium with DMSO)

SMILES	IC50 (HSP90α) [nM]	IC50 (BRD4 (BD1+BD2)) [nM]	IC50 at 72 h (MV4-11 cells) [nM]
Cc1sc2c(c1C)C(c1ccc(Cl)cc1)=N[C@@H](CC(=O)N(C)CCOc1ccc(CN(C)Cc3ccc(-n4c(O)nnc4-c4cc(C(C)C)c(O)cc4O)cc3)cc1)c1nnc(C)n1-2 [Compound 99, (S)-2-(4-(4-chlorophenyl)-2,3,9-trimethyl-6H-thieno[3,2-f][1,2,4]triazolo[4,3-a][1,4]diazepin-6-yl)-N-(2-(4-(((4-(3-(2,4-dihydroxy-5-isopropylphenyl)-5-hydroxy-4H-1,2,4-triazol-4-yl)benzyl)(methyl)amino)methyl)phenoxy)ethyl)-N-methylacetamide, formic acid]	100 to 1000	> 1000	< 100
Cc1sc2c(c1C)C(c1ccc(Cl)cc1)=N[C@@H](CC(=O)N1CCC(CN3CCN(Cc4ccc(-n5c(C(=O)NC(C)C)nnc5-c5cc(C(C)C)c(O)cc5O)cc4)CC3)CC1)c1nnc(C)n1-2 [Compound 108, (S)-4-(4-((4-((1-(2-(4-(4-chlorophenyl)-2,3,9-trimethyl-6H-thieno[3,2-f][1,2,4]triazolo[4,3-a][1,4]diazepin-6-yl)acetyl)piperidin-4-yl)methyl)piperazin-1-yl)methyl)phenyl)-5-(2,4-dihydroxy-5-isopropylphenyl)-N-isopropyl-4H-1,2,4-triazole-3-carboxamide, trifluoroacetic acid]	> 1000	> 1000	100 to 1000
CCc1cc(-c2nnc(C(=O)NCCN(CC)CC)n2-c2ccc(CN3CCN(CC4CCN(C(=O)C[C@@H]5N=C(c6ccc(Cl)cc6)c6c(sc(C)c6C)-n6c(C)nnc65)CC4)CC3)cc2)c(O)cc1O [Compound 104, (S)-4-(4-((4-((1-(2-(4-(4-chlorophenyl)-2,3,9-trimethyl-6H-thieno[3,2-f][1,2,4]triazolo[4,3-a][1,4]diazepin-6-yl)acetyl)piperidin-4-yl)methyl)piperazin-1-yl)methyl)phenyl)-N-(2-(diethylamino)ethyl)-5-(5-ethyl-2,4-dihydroxyphenyl)-4H-1,2,4-triazole-3-carboxamide, trifluoroacetic acid]	100 to 1000	< 100	< 100
Cc1sc2c(c1C)C(c1ccc(Cl)cc1)=N[C@@H](CC(=O)N1CCC(CN3CCN(Cc4ccc(-n5c(O)nnc5-c5cc(C(C)C)c(O)cc5O)cc4)CC3)CC1)c1nnc(C)n1-2 [Compound 103, (S)-2-(4-(4-chlorophenyl)-2,3,9-trimethyl-6H-thieno[3,2-f][1,2,4]triazolo[4,3-a][1,4]diazepin-6-yl)-1-(4-((4-(4-(3-(2,4-dihydroxy-5-isopropylphenyl)-5-hydroxy-4H-1,2,4-triazol-4-yl)benzyl)piperazin-1-yl)methyl)piperidin-1-yl)ethan-1-one acetate]	100 to 1000	100 to 1000	< 100
Cc1sc2c(c1C)C(c1ccc(Cl)cc1)=N[C@@H](CC(=O)N1CCC(CN3CCN(Cc4ccc(-n5c(C(=O)NCC(F)(F)F)nnc5-c5cc(C(C)C)c(O)cc5O)cc4)CC3)CC1)c1nnc(C)n1-2 [Compound 13, 4-(4-((4-((1-(2-((6S)-4-(4-chlorophenyl)-2,3,9-trimethyl-6H-thieno[3,2-f][1,2,4]triazolo[4,3-a][1,4]diazepin-6-yl)acetyl)piperidin-4-yl)methyl)piperazin-1-yl)methyl)phenyl)-5-(2,4-dihydroxy-5-isopropylphenyl)-N-(2,2,2-trifluoroethyl)-4H-1,2,4-triazole-3-carboxamide]	100 to 1000	100 to 1000	< 100
Cc1sc2c(c1C)C(c1ccc(Cl)cc1)=N[C@@H](CC(=O)N(C)CCOc1ccc(CN(C)Cc3ccc(-n4c(C(=O)NCC(F)(F)F)nnc4-c4cc(C(C)C)c(O)cc4O)cc3)cc1)c1nnc(C)n1-2 [Compound 101, (S)-4-(4-(((4-(2-(2-(4-(4-chlorophenyl)-2,3,9-trimethyl-6H-thieno[3,2-f][1,2,4]triazolo[4,3-a][1,4]diazepin-6-yl)-N-methylacetamido)ethoxy)benzyl)(methyl)amino)methyl)phenyl)-5-(2,4-dihydroxy-5-isopropylphenyl)-N-(2,2,2-trifluoroethyl)-4H-1,2,4-triazole-3-carboxamide, formic acid]	> 1000	> 1000	< 100
CCCc1cc(-c2nnc(O)n2-c2ccc(CN3CCN(CC4CCN(C(=O)C[C@@H]5N=C(c6ccc(Cl)cc6)c6c(sc(C)c6C)-n6c(C)nnc65)CC4)CC3)cc2)c(O)cc1O [Compound 11, (S)-2-(4-(4-chlorophenyl)-2,3,9-trimethyl-6H-thieno[3,2-f][1,2,4]triazolo[4,3-a][1,4]diazepin-6-yl)-1-(4-((4-(4-(3-(2,4-dihydroxy-5-propylphenyl)-5-hydroxy-4H-1,2,4-triazol-4-yl)benzyl)piperazin-1-yl)methyl)piperidin-1-yl)ethan-1-one, trifluoroacetic acid]	< 100	100 to 1000	< 100
CCCc1cc(-c2nnc(C(=O)NCCN3CCCCC3)n2-c2ccc(CN3CCN(CC4CCN(C(=O)C[C@@H]5N=C(c6ccc(Cl)cc6)c6c(sc(C)c6C)-n6c(C)nnc65)CC4)CC3)cc2)c(O)cc1O [Compound 123, (S)-4-(4-((4-((1-(2-(4-(4-chlorophenyl)-2,3,9-trimethyl-6H-thieno[3,2-f][1,2,4]triazolo[4,3-a][1,4]diazepin-6-yl)acetyl)piperidin-4-yl)methyl)piperazin-1-yl)methyl)phenyl)-5-(2,4-dihydroxy-5-propylphenyl)-N-(2-(piperidin-1-yl)ethyl)-4H-1,2,4-triazole-3-carboxamide, trifluoroacetic acid]	100 to 1000	< 100	< 100
CCN(Cc1ccc(OCCCNC(=O)C[C@@H]2N=C(c3ccc(Cl)cc3)c3c(sc(C)c3C)-n3c(C)nnc32)cc1)Cc1ccc(-n2c(O)nnc2-c2cc(C(C)C)c(O)cc2O)cc1 [Compound 100, (S)-2-(4-(4-chlorophenyl)-2,3,9-trimethyl-6H-thieno[3,2-f][1,2,4]triazolo[4,3-a][1,4]diazepin-6-yl)-N-(3-(4-(((4-(3-(2,4-dihydroxy-5-isopropylphenyl)-5-hydroxy-4H-1,2,4-triazol-4-yl)benzyl)(ethyl)amino)methyl)phenoxy)propyl)acetamide, formic acid]	100 to 1000	100 to 1000	< 100
CCc1cc(C(=O)N2Cc3ccc(CN4CCN(C(=O)C[C@@H]5N=C(c6ccc(Cl)cc6)c6c(sc(C)c6C)-n6c(C)nnc65)CC4)cc3C2)c(O)cc1O [Compound 142, (S)-2-(4-(4-chlorophenyl)-2,3,9-trimethyl-6H-thieno[3,2-f][1,2,4]triazolo[4,3-a][1,4]diazepin-6-yl)-1-(4-((2-(5-ethyl-2,4-dihydroxybenzoyl)isoindolin-5-yl)methyl)piperazin-1-yl)ethan-1-one]	100 to 1000	100 to 1000	100 to 1000
Cc1sc2c(c1C)C(c1ccc(Cl)cc1)=N[C@@H](CC(=O)N1CCN(Cc3ccc4c(c3)CN(C(=O)c3cc(C(C)C)c(O)cc3O)C4)CC1)c1nnc(C)n1-2 [Compound 141, (S)-2-(4-(4-chlorophenyl)-2,3,9-trimethyl-6H-thieno[3,2-f][1,2,4]triazolo[4,3-a][1,4]diazepin-6-yl)-1-(4-((2-(2,4-dihydroxy-5-isopropylbenzoyl)isoindolin-5-yl)methyl)piperazin-1-yl)ethan-1-one]	100 to 1000	100 to 1000	100 to 1000
Cc1sc2c(c1C)C(c1ccc(Cl)cc1)=N[C@@H](CC(=O)NCc1ccc(CN3CCC(Cc4ccc(-n5c(O)nnc5-c5cc(C(C)C)c(O)cc5O)cc4)CC3)cc1)c1nnc(C)n1-2 [Compound 89, (S)-2-(4-(4-chlorophenyl)-2,3,9-trimethyl-6H-thieno[3,2-f][1,2,4]triazolo[4,3-a][1,4]diazepin-6-yl)-N-(4-((4-(4-(3-(2,4-dihydroxy-5-isopropylphenyl)-5-hydroxy-4H-1,2,4-triazol-4-yl)benzyl)piperidin-1-yl)methyl)benzyl)acetamide, trifluoroacetic acid]	100 to 1000	100 to 1000	< 100
Cc1sc2c(c1C)C(c1ccc(Cl)cc1)=N[C@@H](CC(=O)N1CCC(CN3CCN(Cc4ccc(-n5c(C(=O)NC(C)C)nnc5-c5ccc(O)cc5O)cc4)CC3)CC1)c1nnc(C)n1-2 [Compound 119, (S)-4-(4-((4-((1-(2-(4-(4-chlorophenyl)-2,3,9-trimethyl-6H-thieno[3,2-f][1,2,4]triazolo[4,3-a][1,4]diazepin-6-yl)acetyl)piperidin-4-yl)methyl)piperazin-1-yl)methyl)phenyl)-5-(2,4-dihydroxyphenyl)-N-isopropyl-4H-1,2,4-triazole-3-carboxamide, trifluoroacetic acid]	100 to 1000	< 100	< 100
Cc1sc2c(c1C)C(c1ccc(Cl)cc1)=N[C@@H](CC(=O)NCCOc1ccc(-n3c(S)nnc3-c3cc(C(C)C)c(O)cc3O)cc1)c1nnc(C)n1-2 [Compound 32, (S)-2-(4-(4-chlorophenyl)-2,3,9-trimethyl-6H-thieno[3,2-f][1,2,4]triazolo[4,3-a][1,4]diazepin-6-yl)-N-(2-(4-(3-(2,4-dihydroxy-5-isopropylphenyl)-5-mercapto-4H-1,2,4-triazol-4-yl)phenoxy)ethyl)acetamide]	100 to 1000	> 1000	100 to 1000
